“And” between values parts separate entries of the source, which are not always exact repeats. Identical values can stand only once. Like-named read-outs stand apart in the source and are kept apart here.
How the values were obtained:
[1] = tested on: C. glabrata expressing humanized Bdf1 (Brd4 BDs); assay: Growth inhibition in liquid media, humanized C. glabrata strains; conditions: Nakaseomyces glabratus, read-out: EC50 growth inhibition, strain expressing humanized Bdf1
Method: (§1) Growth on Liquid Media with C. glabrata Lab Strains: Cells were grown at 30 °C in SC+M+C‐U medium (SC medium with 5 mM methionine, 0.25 mM cysteine, without uracil) to an OD600 of 0.5–0.8. […] Plates were incubated at 30 °C and OD600 was measured using a Multiskan FC Microplate Photometer (Thermo Fisher).

[2] = tested on: C. glabrata strains expressing WT and mutant Bdf1; assay: Growth inhibition in liquid media, C. glabrata lab strains; conditions: for %Growth: WT BDF1-flag
Method: as §1

human Brd4 BD1 = human Brd4 BD1 (Homo sapiens, UniProt O60885); assay: HTRF assay, inhibition of H4ac4 peptide binding; conditions: Brd4 BD1
CgBdf1 BD1 = CgBdf1 BD1 (Candida glabrata, UniProt Q6FWV7); assay: HTRF assay, inhibition of H4ac4 peptide binding; parameters: species or system C. glabrata; conditions: for HTRF signal, normalized (Figure 5A data): 240 min
CgBdf1 BD2 = CgBdf1 BD2 (Candida glabrata, UniProt Q6FWV7); assay: biochemical; type: binding, C. glabrata
CgBdf1 BD2, sequence (Q6FWV7 entry or part of it): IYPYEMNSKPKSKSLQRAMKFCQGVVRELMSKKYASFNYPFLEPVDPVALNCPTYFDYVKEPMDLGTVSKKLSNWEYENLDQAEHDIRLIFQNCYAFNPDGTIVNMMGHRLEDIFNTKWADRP

CgBdf1 BD1, sequence (Q6FWV7 entry or part of it): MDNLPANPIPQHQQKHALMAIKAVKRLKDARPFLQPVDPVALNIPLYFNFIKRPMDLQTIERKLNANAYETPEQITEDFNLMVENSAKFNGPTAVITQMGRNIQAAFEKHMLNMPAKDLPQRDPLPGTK

CC(=O)N1c2ccc(-c3ccc(C(=O)O)cc3)cc2C(Nc2ccc(Cl)cc2)CC1C (centres unmarked) [I-BET726]
EC50 [1]: 0.014 µM | %Growth ([2]; Fig 3E, 50 µM, Exp 1-3): 24% and 29% and 27% | %Growth ([2]; Fig 3F, 0.0412 µM): 86.79% and 92.92% and 93.05% | %Growth ([2]; Fig 3F, 0.1235 µM): 78.65% and 90.9% and 90.48% | %Growth ([2]; Fig 3F, 0.3704 µM): 70.78% and 76.63% and 84.08% | %Growth ([2]; Fig 3F, 1.1111 µM): 65.69% and 73.22% and 70.81% | %Growth ([2]; Fig 3F, 3.3333 µM): 37.23% and 49.84% and 57.55% | %Growth ([2]; Fig 3F, 10 µM): 20.2% and 22.05% and 23.51% | EC50 ([2]; Nakaseomyces glabratus, read-out: EC50 (μM) growth inhibition, Fig 3F, strain BDF1-FLAG (WT Bdf1)): 3.24 ± 0.75 µM | EC50 ([2]; Nakaseomyces glabratus, read-out: EC50 (μM) growth inhibition, strain bdf1-Y166F (active BD: BD2)): 1.98 ± 0.36 µM | EC50 ([2]; Nakaseomyces glabratus, read-out: EC50 (μM) growth inhibition, strain bdf1-Y343F (active BD: BD1)): ~25 µM | EC50 ([2]; Nakaseomyces glabratus, read-out: EC50 (μM) growth inhibition, strain bdf1-bd1Δ (active BD: BD2)): 1.17 ± 0.1 µM | EC50 ([2]; Nakaseomyces glabratus, read-out: EC50 (μM) growth inhibition, strain bdf1-bd2Δ (active BD: BD1)): 13.7 ± 4.9 µM | Growth (%) ([2]; WT BDF1, 20 µM, Fig 5B): 34% | EC50 ([2]; read-out: EC50 (μM) growth inhibition, Fig 3F, strain BDF1-FLAG (WT Bdf1)): 3 µM and 3.2 µM | HTRF signal, normalized (Figure 5A data) (human Brd4 BD1; 0.0537 nM): 104.39 and 100.71 and 99.92 and 101.07 | HTRF signal, normalized (Figure 5A data) (human Brd4 BD1; 0.13 nM): 104.60 and 101.29 and 100.85 and 99.75 | HTRF signal, normalized (Figure 5A data) (human Brd4 BD1; 0.34 nM): 101.49 and 102.55 and 101.26 and 101.01 | HTRF signal, normalized (Figure 5A data) (human Brd4 BD1; 0.84 nM): 100.78 and 99.59 and 99.33 and 97.74 | HTRF signal, normalized (Figure 5A data) (human Brd4 BD1; 2.10 nM): 99.49 and 98.84 and 98.60 | HTRF signal, normalized (Figure 5A data) (human Brd4 BD1; 5.24 nM): 95.52 and 94.38 and 93.54 and 94.69 | HTRF signal, normalized (Figure 5A data) (human Brd4 BD1; 13.11 nM): 83.95 and 83.77 and 84.76 and 83.85 | HTRF signal, normalized (Figure 5A data) (human Brd4 BD1; 32.77 nM): 48.83 and 48.92 and 64.32 and 62.36 | HTRF signal, normalized (Figure 5A data) (human Brd4 BD1; 81.92 nM): 17.12 and 16.89 and 27.28 and 27.02 | HTRF signal, normalized (Figure 5A data) (human Brd4 BD1; 204.8 nM): 4.51 and 4.84 and 6.56 and 8.13 | HTRF signal, normalized (Figure 5A data) (human Brd4 BD1; 512 nM): 0.14 and 0.27 and 0.17 and 0.18 | HTRF signal, normalized (Figure 5A data) (CgBdf1 BD1; 0.00524 µM): 100.65 and 90.91 and 103.41 | activity at 0.01311 µM (CgBdf1 BD1; 4 h, CgBD1, 13.11 nM, read-out: HTRF signal, normalized (Figure 5A data)): 104% | activity at 0.03277 µM (CgBdf1 BD1; 4 h, CgBD1, 32.77 nM, read-out: HTRF signal, normalized (Figure 5A data)): 101% | activity at 0.08192 µM (CgBdf1 BD1; 4 h, CgBD1, 81.92 nM, read-out: HTRF signal, normalized (Figure 5A data)): 100% | activity at 0.2048 µM (CgBdf1 BD1; 4 h, CgBD1, 204.8 nM, read-out: HTRF signal, normalized (Figure 5A data)): 95.5% | activity at 0.512 µM (CgBdf1 BD1; 4 h, CgBD1, 512 nM, read-out: HTRF signal, normalized (Figure 5A data)): 85.3% | activity at 3.2 µM (CgBdf1 BD1; 4 h, CgBD1, 3200 nM, read-out: HTRF signal, normalized (Figure 5A data)): 40.5% | activity at 8 µM (CgBdf1 BD1; 4 h, CgBD1, 8000 nM, read-out: HTRF signal, normalized (Figure 5A data)): 10.1% | activity at 0.00524 µM (CgBdf1 BD1; 4 h, read-out: HTRF signal, normalized (Figure 5A data)): 103% | HTRF signal, normalized (Figure 5A data) (CgBdf1 BD1; CgBD1, 2.10 nM, 0.0021 µM): 106.06 and 99.07 and 83.43 and 98.63 | HTRF signal, normalized (Figure 5A data) (CgBdf1 BD1; CgBD1, 13.11 nM, 0.01311 µM): 90.77 and 95.51 and 103.15 | HTRF signal, normalized (Figure 5A data) (CgBdf1 BD1; CgBD1, 32.77 nM, 0.03277 µM): 93.49 and 101.00 and 99.77 | HTRF signal, normalized (Figure 5A data) (CgBdf1 BD1; CgBD1, 204.8 nM, 0.2048 µM): 107.13 and 88.05 and 91.40 | HTRF signal, normalized (Figure 5A data) (CgBdf1 BD1; CgBD1, 512 nM, 0.512 µM): 93.88 and 86.26 and 86.89 | HTRF signal, normalized (Figure 5A data) (CgBdf1 BD1; CgBD1, 1280 nM, 1.28 µM): 77.62 and 66.65 and 70.52 | HTRF signal, normalized (Figure 5A data) (CgBdf1 BD1; CgBD1, 3200 nM, 3.2 µM): 48.37 and 45.98 and 46.29 | HTRF signal, normalized (Figure 5A data) (CgBdf1 BD1; CgBD1, 8000 nM, 8 µM): 13.26 and 14.56 and 18.60 | IC50 (CgBdf1 BD1; Fig 5A, four replicates, read-out: IC50 (μM) BD1, C. gla. Bdf1): 2.52 ± 0.14 µM | activity at 0.0021 µM (CgBdf1 BD2; 24 h, CgBD2, 2.10 nM, read-out: HTRF signal, normalized (Figure 5A data)): 98.3% | activity at 0.01311 µM (CgBdf1 BD2; 24 h, CgBD2, 13.11 nM, read-out: HTRF signal, normalized (Figure 5A data)): 91.8% | activity at 0.03277 µM (CgBdf1 BD2; 24 h, CgBD2, 32.77 nM, read-out: HTRF signal, normalized (Figure 5A data)): 80.2% | activity at 0.08192 µM (CgBdf1 BD2; 24 h, CgBD2, 81.92 nM, read-out: HTRF signal, normalized (Figure 5A data)): 54.9% | activity at 0.2048 µM (CgBdf1 BD2; 24 h, CgBD2, 204.8 nM, read-out: HTRF signal, normalized (Figure 5A data)): 20.4% | activity at 0.512 µM (CgBdf1 BD2; 24 h, CgBD2, 512 nM, read-out: HTRF signal, normalized (Figure 5A data)): 9.19% | activity at 1.28 µM (CgBdf1 BD2; 24 h, CgBD2, 1280 nM, read-out: HTRF signal, normalized (Figure 5A data)): 5.95% | activity at 0.00524 µM (CgBdf1 BD2; 24 h, read-out: HTRF signal, normalized (Figure 5A data)): 93.2% | IC50 (CgBdf1 BD2; Fig 5A, four replicates, read-out: IC50 (μM) BD2, C. gla. Bdf1): 0.085 ± 0.012 µM

Reference: publication PMC11904993, “Humanized Candida and NanoBiT Assays Expedite Discovery of Bdf1 Bromodomain Inhibitors With Antifungal Potential” (Advanced Science, 2025)
